The text below walks through data of BindingDB's records for doi:10.1016/j.bmc.2016.11.016 (University of Kaiserslautern, 2017).

The target in this experiment is T1, Signal transducer and activator of transcription 1-alpha/beta (Homo sapiens, UniProt P42224).
T1 sequence (P42224 whole entry): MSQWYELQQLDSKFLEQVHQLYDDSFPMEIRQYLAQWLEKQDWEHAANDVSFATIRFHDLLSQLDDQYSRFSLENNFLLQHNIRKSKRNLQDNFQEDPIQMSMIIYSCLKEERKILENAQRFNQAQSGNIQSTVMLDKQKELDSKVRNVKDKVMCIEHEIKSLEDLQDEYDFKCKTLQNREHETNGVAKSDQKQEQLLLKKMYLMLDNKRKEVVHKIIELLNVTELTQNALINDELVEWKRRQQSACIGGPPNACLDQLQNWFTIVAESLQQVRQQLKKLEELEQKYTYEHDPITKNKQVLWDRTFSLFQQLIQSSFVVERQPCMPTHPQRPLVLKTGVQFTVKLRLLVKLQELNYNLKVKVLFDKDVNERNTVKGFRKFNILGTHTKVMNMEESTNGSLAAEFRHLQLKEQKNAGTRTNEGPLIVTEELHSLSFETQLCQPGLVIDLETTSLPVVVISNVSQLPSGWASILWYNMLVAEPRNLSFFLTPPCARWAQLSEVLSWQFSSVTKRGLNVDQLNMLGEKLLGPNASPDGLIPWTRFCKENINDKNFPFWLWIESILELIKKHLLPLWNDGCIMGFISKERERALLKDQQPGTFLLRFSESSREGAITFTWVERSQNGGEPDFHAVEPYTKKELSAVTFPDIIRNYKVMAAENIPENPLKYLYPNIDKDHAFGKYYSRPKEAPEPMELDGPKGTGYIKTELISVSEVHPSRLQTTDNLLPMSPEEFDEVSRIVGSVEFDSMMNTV
As to the kind of experiment: Inhibition of Stat1 (unknown origin) expressed in LPS/INF-gamma-stimulated human MONO-MAC-6 cells assessed as reduction in GAS dependent transcription activity measured after 4 hrs by luciferase reporter gene assay. (In general: Reporter assays use an easily measured gene product as a stand-in for the process of interest.)
For `CC(C)[C@H]1CC[C@]23C[C@@H]4[C@H](C)C(=O)[C@H]5O[C@]54[C@@]2(C)[C@@H](O)C(=O)[C@]13C`, the IC50 was 7 µM. In the case of `C=C[C@H]1CC[C@]23C[C@@H]4[C@H](C)C(=O)[C@H]5O[C@]54[C@@]2(C)C[C@H](O)[C@]13C`, the IC50 came out at 2 µM. Regarding `CC(C)[C@H]1CC[C@]23C[C@@H]4[C@H](C)C(=O)[C@H]5O[C@]54[C@@]2(C)CC(=O)[C@]13C`, the IC50 came out at 2 µM. To `C=C[C@H]1CC[C@]23C[C@@H]4[C@H](C)[C@@H](O)[C@H]5O[C@@]45[C@@]2(C)CC(=O)[C@]13C` belongs more than 50 µM.

As usually defined, the IC50 is the concentration needed to halve the response being measured.
